Reference: EP4112046A1, “PHARMACEUTICAL COMPOSITION AND USE THEREOF” (Alphala Co., Ltd., priority 2021, dated 2023)

Test: Solubility in buffers or solutions, LC-MS/MS
Type: physicochemical
Settings: 3 mg/mL, 37°C, 24 hrs
Description: The test formulation was added into indicated buffers or solutions (ddH2O or 0.9% saline, pH 7.4) to the final concentration of 3 mg/mL, followed by sonicating for 30 mins. Next, the mixture was put into 37°C water bath for 24 hrs. The mixture was mixed well by vortex and 1 mL of mixture was transferred into the 1.5 mL eppendorf tube, followed by centrifuging at 20817 xg for 30 mins. 10 µL of the supernatant was collected, and the concentration of the collected supernatant was determined by LC-MS/MS.

Which “Solubility (mg/ml)” value (H2O (pH7.0)) does the source give for `CCOC(=O)CCNC(=O)c1ccc(N[C@H](c2ccc(-c3nnc(-c4ccccc4)o3)cc2)C(C)C)cc1` [ALP001E] here?
Its value is “< LOQ”.

And the “Solubility (mg/ml)” value (Saline (pH7.4))?
The value was “< LOQ”.
